# In patent publication US11919859B2, “Herbicidal mixture, composition and method” (FMC Corporation, priority 2017, dated 2024):
# Experiments:
# [1] = tested on: monochoria (MOOVA, Monochoria vaginalis); test: Test A flooded greenhouse test, monochoria; assay type: in vivo; conditions: 14 d
# Source text: (§1) Seeds of Asian sprangletop (LEPCH, Leptochloa chinensis), smallflower umbrella sedge (CYPDI, Cyperus difformis), monochoria (MOOVA, Monochoria vaginalis) and ducksalad (HETLI, Heteranthera limosa) were sown on the soil surface in four separate quadrants of 16-cm tubs filled with steam pasteurized Tama soil. Simultaneously, plantings of barnyardgrass (ECHCG, Echinochloa crus-galli), japonica rice (ORYSA, Oryza sativa) and late watergrass (ECHPH, Echinochloa phyllopogon) were established in separate “plug” flats. Plants were grown in a greenhouse using supplemental lighting to maintain a photoperiod of approximately 16 h; daytime and nighttime temperatures were approximately 27-30° C. and 24-27° C., respectively. After 8 d, barnyardgrass, rice and late watergrass plants were transplanted in 3 quadrants of separate tub, and the water level was adjusted to a final depth of 3 cm. Herbicide application of Cmpd. No. 1 and florpyrauxifen-benzyl (CAS Registry No. 1390661-72-9; 439.2 g/mol) timing was targeted at the 2.0 to 2.5 leaf stage and the plants were treated with test chemicals formulated in a non-phytotoxic solvent. Treated plants and controls were maintained in a greenhouse for 14 d, after which time all species were compared to controls and visually evaluated. Plant response ratings are summarized in Table A, and are based on a scale of 0 to 100 where 0 is no effect and 100 is complete control and is the mean of duplicate ratings. A dash (-) response means no test result.
# (§2) Colby's Equation was used to determine the herbicidal effects expected from the mixtures. Colby's Equation (Colby, S. R. “Calculating Synergistic and Antagonistic Responses of Herbicide Combinations,” Weeds 1967 15(1), pp 20-22) calculates the expected additive effect of herbicidal mixtures and for two active ingredients is of the form: Pa+b=Pa+Pb−(PaPb/100) wherein Pa+b is the percentage effect of the mixture expected from additive contribution of the individual components: • Pa is the observed percentage effect of the first active ingredient at the same use rate as in the mixture, and • Pb is the observed percentage effect of the second active ingredient at the same use rate as in the mixture. The results and additive effects expected from Colby's Equation are listed in Table A. Application rates are grams of active ingredient per hectare (g a.i./ha). “Obsd.” is the observed effect and “Exp.” is expected effect calculated from Colby's Equation.
# [2] = tested on: late watergrass (ECHPH, Echinochloa phyllopogon); test: Test A flooded greenhouse test, late watergrass; assay type: in vivo; conditions: 14 d
# Source text: as §1, §2
# [3] = tested on: barnyardgrass (ECHCG, Echinochloa crus-galli); test: Test A flooded greenhouse test, barnyardgrass; assay type: in vivo; conditions: 14 d
# Source text: as §1, §2
# [4] = tested on: smallflower umbrella sedge (CYPDI, Cyperus difformis); test: Test A flooded greenhouse test, smallflower umbrella sedge; assay type: in vivo; conditions: 14 d
# Source text: as §1, §2
# [5] = tested on: Asian sprangletop (LEPCH, Leptochloa chinensis); test: Test A flooded greenhouse test, Asian sprangletop; assay type: in vivo; conditions: 14 d
# Source text: as §1, §2
# [6] = tested on: japonica rice (ORYSA, Oryza sativa); test: Test A flooded greenhouse test, japonica rice (crop); assay type: in vivo
# Source text: as §1
# Colby's Equation was used to determine the herbicidal effects expected from the mixtures. […] “Obsd.” is the observed effect and “Exp.” is expected effect calculated from Colby's Equation.
# [7] = tested on: ducksalad (HETLI, Heteranthera limosa); test: Test A flooded greenhouse test, ducksalad; assay type: in vivo; conditions: 14 d
# Source text: as §1, §2
# [8] = tested on: Ryegrass, Italian (Italian ryegrass, Lolium multiflorum); test: Test B postemergence, Italian ryegrass; assay type: in vivo; conditions: approximately 10 d
# Source text: (§3) Seeds of plant species selected from barnyardgrass (Echinochloa crus-galli), kochia (Kochia scoparia), ragweed (common ragweed, Ambrosia elatior), Ryegrass, Italian (Italian ryegrass, Lolium multiflorum), foxtail, green (green foxtail, Setaria viridis), and pigweed (Amaranthus retroflexus) were planted into a blend of loam soil and sand and treated preemergence with a directed soil spray using test chemicals formulated in a non-phytotoxic solvent mixture which included a surfactant.
# (§4) At the same time, plants selected from these weed species and also wheat (Triticum aestivum), corn (Zea mays), blackgrass (Alopecurus myosuroides), and galium (catchweed bedstraw, Galium aparine) were planted in pots containing the same blend of loam soil and sand and treated with postemergence applications of test chemicals formulated in the same manner. Plants ranged in height from 2 to 10 cm and were in the one- to two-leaf stage for the postemergence treatment. Treated plants and untreated controls were maintained in a greenhouse for approximately 10 d, after which time all treated plants were compared to untreated controls and visually evaluated for injury. Plant response ratings, summarized in Table B, are based on a 0 to 100 scale where 0 is no effect and 100 is complete control. A dash (-) response means no test result.
# [9] = tested on: Ryegrass, Italian (Italian ryegrass, Lolium multiflorum); test: Test B preemergence, Italian ryegrass; assay type: in vivo; conditions: approximately 10 d
# Source text: as §3, §4
# [10] = tested on: barnyardgrass (Echinochloa crus-galli); test: Test C flooded paddy test, barnyardgrass; assay type: in vivo; conditions: Flood; 250 g ai/ha; 13 to 15 d
# Method: (§5) Test C Plant species in the flooded paddy test selected from rice (Oryza sativa), sedge, umbrella (small-flower umbrella sedge, Cyperus difformis), ducksalad (Heteranthera limosa), and barnyardgrass (Echinochloa crus-galli) were grown to the 2-leaf stage for testing. At time of treatment, test pots were flooded to 3 cm above the soil surface, treated by application of test compounds directly to the paddy water, and then maintained at that water depth for the duration of the test. Treated plants and controls were maintained in a greenhouse for 13 to 15 d, after which time all species were compared to controls and visually evaluated. Plant response ratings, summarized in Table C, are based on a scale of 0 to 100 where 0 is no effect and 100 is complete control. A dash (-) response means no test result.
# [11] = tested on: foxtail, green (green foxtail, Setaria viridis); test: Test B preemergence, green foxtail; assay type: in vivo; conditions: approximately 10 d
# Source text: as §3, §4
# kochia (Kochia scoparia) [12] = test: Test B preemergence, kochia; assay type: in vivo; conditions: approximately 10 d
# Source text: as §3, §4
# [13] = tested on: sedge, umbrella (small-flower umbrella sedge, Cyperus difformis); test: Test C flooded paddy test, umbrella sedge; assay type: in vivo; conditions: Flood; 250 g ai/ha; 13 to 15 d
# Method: as §5
# [14] = tested on: foxtail, green (green foxtail, Setaria viridis); test: Test B postemergence, green foxtail; assay type: in vivo; conditions: approximately 10 d
# Source text: as §3, §4
# [15] = tested on: pigweed (Amaranthus retroflexus); test: Test B postemergence, pigweed; assay type: in vivo; conditions: approximately 10 d
# Source text: as §3, §4
# corn (Zea mays) = test: Test B postemergence, corn; assay type: in vivo; conditions: approximately 10 d
# Source text: as §3, §4
# [16] = tested on: barnyardgrass (Echinochloa crus-galli); test: Test B postemergence, barnyardgrass; assay type: in vivo; conditions: approximately 10 d
# Source text: as §3, §4
# [17] = tested on: galium (catchweed bedstraw, Galium aparine); test: Test B postemergence, galium; assay type: in vivo; conditions: approximately 10 d
# Source text: as §3, §4
# [18] = tested on: barnyardgrass (Echinochloa crus-galli); test: Test B preemergence, barnyardgrass; assay type: in vivo; conditions: approximately 10 d
# Source text: as §3, §4
# [19] = tested on: blackgrass (Alopecurus myosuroides); test: Test B postemergence, blackgrass; assay type: in vivo; conditions: approximately 10 d
# Source text: as §3, §4
# [20] = tested on: ragweed (common ragweed, Ambrosia elatior); test: Test B postemergence, ragweed; assay type: in vivo; conditions: approximately 10 d
# Source text: as §3, §4
# [21] = tested on: ragweed (common ragweed, Ambrosia elatior); test: Test B preemergence, ragweed; assay type: in vivo; conditions: approximately 10 d
# Source text: as §3, §4
# [22] = tested on: wheat (Triticum aestivum); test: Test B postemergence, wheat; assay type: in vivo; conditions: approximately 10 d
# Source text: as §3, §4
# rice (Oryza sativa) = conditions: in vivo
# Method: as §5
# [23] = tested on: ducksalad (Heteranthera limosa); test: Test C flooded paddy test, ducksalad; assay type: in vivo; conditions: Flood; 250 g ai/ha; 13 to 15 d
# Method: as §5
# [24] = tested on: pigweed (Amaranthus retroflexus); test: Test B preemergence, pigweed; assay type: in vivo; conditions: approximately 10 d
# Source text: as §3, §4
# kochia (Kochia scoparia) [25] = test: Test B postemergence, kochia; assay type: in vivo; conditions: approximately 10 d
# Source text: as §3, §4
# [26] = florpyrauxifen-benzyl 2 g a.i./ha alone
# [27] = florpyrauxifen-benzyl 4 g a.i./ha alone
smiles,measurement,setting,value
CN1C[C@H](c2cccc(C(F)(F)F)c2)[C@@H](C(=O)Nc2ccccc2F)C1=O [Cmpd. No. 1],MOOVA Obsd. plant response rating (0 to 100),[1]; Cmpd. No. 1 50 g a.i./ha alone,70
same,MOOVA Obsd. plant response rating (0 to 100),[1]; Cmpd. No. 1 75 g a.i./ha alone,70
same,ECHPH Obsd. plant response rating (0 to 100),[2]; Cmpd. No. 1 50 g a.i./ha alone,75
same,ECHPH Obsd. plant response rating (0 to 100),[2]; Cmpd. No. 1 75 g a.i./ha alone,85
same,ECHCG Obsd. plant response rating (0 to 100),[3]; Cmpd. No. 1 50 g a.i./ha alone,70
same,ECHCG Obsd. plant response rating (0 to 100),[3]; Cmpd. No. 1 75 g a.i./ha alone,70
same,CYPDI Obsd. plant response rating (0 to 100),[4]; Cmpd. No. 1 50 g a.i./ha alone,0
same,CYPDI Obsd. plant response rating (0 to 100),[4]; Cmpd. No. 1 75 g a.i./ha alone,0
same,LEPCH Obsd. plant response rating (0 to 100),[5]; Cmpd. No. 1 50 g a.i./ha alone,75
same,LEPCH Obsd. plant response rating (0 to 100),[5]; Cmpd. No. 1 75 g a.i./ha alone,85
same,ORYSA Obsd. plant response rating (0 to 100),[6]; in vivo,0
same,HETLI Obsd. plant response rating (0 to 100),[7]; Cmpd. No. 1 50 g a.i./ha alone,70
same,HETLI Obsd. plant response rating (0 to 100),[7]; Cmpd. No. 1 75 g a.i./ha alone,70
Cc1cc([C@H]2CN(C)C(=O)[C@@H]2C(=O)Nc2cccc(F)c2F)cc(OC(F)F)n1 [Cmpd. No. 4],"Ryegrass, Italian plant response rating (0 to 100)",[8]; 31 g ai/ha,30
same,"Ryegrass, Italian plant response rating (0 to 100)",[8]; 125 g ai/ha,70
same,"Ryegrass, Italian plant response rating (0 to 100)",[9]; 31 g ai/ha,30
same,"Ryegrass, Italian plant response rating (0 to 100)",[9]; 125 g ai/ha,90
same,Barnyardgrass plant response rating (0 to 100),[10],85
same,"Foxtail, Green plant response rating (0 to 100)",[11]; 31 g ai/ha,100
same,"Foxtail, Green plant response rating (0 to 100)",[11]; 125 g ai/ha,100
same,Kochia plant response rating (0 to 100),kochia (Kochia scoparia) [12]; 31 g ai/ha,0
same,Kochia plant response rating (0 to 100),kochia (Kochia scoparia) [12]; 125 g ai/ha,80
same,"Sedge, Umbrella plant response rating (0 to 100)",[13],0
same,"Foxtail, Green plant response rating (0 to 100)",[14]; 31 g ai/ha,70
same,"Foxtail, Green plant response rating (0 to 100)",[14]; 125 g ai/ha,90
same,Pigweed plant response rating (0 to 100),[15]; 31 g ai/ha,20
same,Pigweed plant response rating (0 to 100),[15]; 125 g ai/ha,60
same,Corn plant response rating (0 to 100),corn (Zea mays); 31 g ai/ha,60
same,Corn plant response rating (0 to 100),corn (Zea mays); 125 g ai/ha,80
same,Barnyardgrass plant response rating (0 to 100),[16]; 31 g ai/ha,80
same,Barnyardgrass plant response rating (0 to 100),[16]; 125 g ai/ha,90
same,Galium plant response rating (0 to 100),[17]; 31 g ai/ha,0
same,Galium plant response rating (0 to 100),[17]; 125 g ai/ha,60
same,Barnyardgrass plant response rating (0 to 100),[18]; 31 g ai/ha,100
same,Barnyardgrass plant response rating (0 to 100),[18]; 125 g ai/ha,100
same,Blackgrass plant response rating (0 to 100),[19]; 31 g ai/ha,60
same,Blackgrass plant response rating (0 to 100),[19]; 125 g ai/ha,70
same,Ragweed plant response rating (0 to 100),[20]; 31 g ai/ha,0
same,Ragweed plant response rating (0 to 100),[20]; 125 g ai/ha,60
same,Ragweed plant response rating (0 to 100),[21]; 31 g ai/ha,0
same,Ragweed plant response rating (0 to 100),[21]; 125 g ai/ha,20
same,Wheat plant response rating (0 to 100),[22]; 31 g ai/ha,40
same,Wheat plant response rating (0 to 100),[22]; 125 g ai/ha,70
same,Rice plant response rating (0 to 100),rice (Oryza sativa),30
same,Ducksalad plant response rating (0 to 100),[23],100
same,Pigweed plant response rating (0 to 100),[24]; 31 g ai/ha,40
same,Pigweed plant response rating (0 to 100),[24]; 125 g ai/ha,90
same,Kochia plant response rating (0 to 100),kochia (Kochia scoparia) [25]; 31 g ai/ha,0
same,Kochia plant response rating (0 to 100),kochia (Kochia scoparia) [25]; 125 g ai/ha,20
"COc1c(Cl)ccc(-c2nc(C(=O)OCc3ccccc3)c(Cl)c(N)c2F)c1F [florpyrauxifen-benzyl, 2-pyridinecarboxylic acid, 4-amino-3-chloro-6-(4-chloro-2-fluoro-3-methoxyphenyl)-5-fluoro-, phenylmethyl ester, reference compound]",MOOVA Obsd. plant response rating (0 to 100),[1]; [26],90
same,MOOVA Obsd. plant response rating (0 to 100),[1]; [27],100
same,ECHPH Obsd. plant response rating (0 to 100),[2]; [26],0
same,ECHPH Obsd. plant response rating (0 to 100),[2]; [27],0
same,ECHCG Obsd. plant response rating (0 to 100),[3]; [26],0
same,ECHCG Obsd. plant response rating (0 to 100),[3]; [27],0
same,CYPDI Obsd. plant response rating (0 to 100),[4]; [26],80
same,CYPDI Obsd. plant response rating (0 to 100),[4]; [27],85
same,LEPCH Obsd. plant response rating (0 to 100),[5]; [26],0
same,LEPCH Obsd. plant response rating (0 to 100),[5]; [27],0
same,ORYSA Obsd. plant response rating (0 to 100),"[6]; florpyrauxifen-benzyl 2 g a.i./ha alone, 14 d",0
same,ORYSA Obsd. plant response rating (0 to 100),"[6]; florpyrauxifen-benzyl 4 g a.i./ha alone, 14 d",0
same,HETLI Obsd. plant response rating (0 to 100),[7]; [26],90
same,HETLI Obsd. plant response rating (0 to 100),[7]; [27],100
